Read-outs that look alike come from different tables or passages of the source.
Assays:
LPAR1 = molecular target: T1, LPAR1 (Homo sapiens, UniProt Q92633); assay: Cell calcium flux assay (antagonist mode, LPA at EC80, FLIPR); assay type: cell-based
T1 construct: expressed in transfected cells; host or cells: CHO (CHO-LPA1 cells)
Method: • 1) The test compound was diluted to a 400X stock solution with DMSO in a 384-well plate. • 2) 1 µl of compound solution from step 1 was transferred into 39 ul of assay buffer to prepare a 10X working solution in a 384-well plate using a Bravo automated liquid handling platform. • 3) CHO-LPA1 cells were cultured in F12 medium (10% FBS). • 4) When cells reached 80% confluence, the cells were dissociated using 0.25% trypsin-EDTA. • 5) Cell density was determined and the cells were diluted to 4x10e5/ml using F12 (10% FBS). • 6) 30 µl of the cell suspension was dispensed into a 384-well plate (corning 3764#) using a multidrop automated dispenser, resulting in 12,000 cells per well. The plate was incubated at 37°C with 5% CO2 for 18-20 hours. • 7) The medium was replaced with 25 uL of serum-free medium and incubated overnight. • 8) 10 ul of 3.5X loading dye was added to each well of the cell plate. The plate was incubated in the dark at 37°C with 5% CO2 for 0.5-1 hours. • 9) After incubation, 5 µl of the 10X working solution from step 2 was transferred to the cell plate. • 10) The cell plate was incubated in the dark at 25°C for 15 minutes, and then the calcium signals were read. • 11) A 5X agonist (LPA) working solution in 1X HBSS+20 mM HEPES+0.1% BSA was prepared in a 384-well assay plate (greiner 784075#), with at least 20 µl per well. The agonist concentration used in this assay was determined based on the dose-response curve from a prior agonist mode experiment, with the EC80 value serving as the final agonist concentration. • 12) Data were read and saved using FLIPR at room temperature with the specified settings. • 13) The signal values were plotted against compound concentrations, and the curve fitting was performed and the IC50 values were calculated using nonlinear regression analysis in GraphPad Prism software.
IC50 values are represented by grades A, B, C, and D, where A represents 0 < IC50 ≤ 10 nM, B represents 10 nM < IC50 ≤ 50 nM, C represents 50 nM < IC50 ≤ 100 nM, and D represents IC50 > 100 nM. Table 1 Antagonistic activity of the compounds of the present invention against LPAR1

[1] = Pharmacokinetic test in mice; assay type: in vivo, C57 mice; details: for pharmacokinetic characteristics in mice: conclusion in words; for C0 or Cmax / AUC(0-t) / clearance / Vd / bioavailability: mice, plasma; for AUC(0-t) / clearance / Vd / bioavailability: mouse; for Vd: read-out: Vdss
Method: 2.1 Experimental animals: Male C57 mice, 20-25 g, 6 mice/compound, purchased from Chengdu Ddossy Experimental Animals Co., Ltd.
2.2 Experimental design: On the day of the experiment, the C57 mice were randomly grouped according to their body weights. The animals were fasted with water available for 12-14 h one day before the administration, and were fed 4 h after the administration. Table 2. Administration information
Before and after administration, 0.06 mL of blood was taken from the orbit under isoflurane anaesthesia and placed in an EDTAK2 centrifuge tube. The tube was centrifuged at 5000 rpm at 4°C for 10 min, and plasma was collected. The blood collection time points for the intravenous administration group and oral gavage administration group were: 0 min, 5 min, 15 min, 30 min, 1 h, 2 h, 4 h, 6 h, 8 h, and 24 h. Before analysis and detection, all samples were stored at -80°C, and the samples were quantitatively analysed by LC-MS/MS. Table 3. Pharmacokinetic parameters of test compounds in plasma of mice

[2] = Pharmacokinetic test in rats; assay type: in vivo, SD rats; details: rats, plasma
Method: 3.1. Experimental animals: Male SD rats, about 220 g, 6-8 weeks old, 6 rats/compound, purchased from Chengdu Ddossy Experimental Animals Co., Ltd.
3.2. Experimental design: On the day of the experiment, the SD rats were randomly grouped according to their body weights. The animals were fasted with water available for 12-14 h one day before the administration, and were fed 4 h after the administration. Table 4. Administration information
Before and after administration, 0.15 mL of blood was taken from the orbit under isoflurane anaesthesia and placed in an EDTAK2 centrifuge tube. The tube was centrifuged at 5000 rpm at 4°C for 10 min, and plasma was collected. Before analysis and detection, all samples were stored at -80°C, and the samples were quantitatively analysed by LC-MS/MS. Table 5. Pharmacokinetic parameters of test compound in plasma of rats

[3] = CHO-LPA1 cells, calcium flux, grades, read-out: LPAR1 IC50
[4] = antagonistic activity against the LPAR1 receptor, read-out: IC50 values

T1 sequence (Q92633 whole entry): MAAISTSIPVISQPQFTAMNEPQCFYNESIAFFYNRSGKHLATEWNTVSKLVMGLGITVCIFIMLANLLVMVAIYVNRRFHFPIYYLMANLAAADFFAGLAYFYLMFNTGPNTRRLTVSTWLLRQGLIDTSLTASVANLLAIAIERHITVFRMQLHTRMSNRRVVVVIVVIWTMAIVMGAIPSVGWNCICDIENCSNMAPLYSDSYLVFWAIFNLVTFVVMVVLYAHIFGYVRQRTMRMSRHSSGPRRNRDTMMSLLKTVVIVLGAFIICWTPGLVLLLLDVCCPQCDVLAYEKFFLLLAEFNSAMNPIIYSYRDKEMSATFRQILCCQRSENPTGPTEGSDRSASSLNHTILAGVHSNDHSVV

## Cc1nc(-c2nnn(C)c2COC(=O)N(C)CCSC(F)(F)F)ccc1O[C@H]1CCC[C@H](C(=O)O)C1 [Compound 28]
LPAR1; [3]
  IC50: < 10 nM

## C=C1CC(N(C)C(=O)OCc2c(-c3ccc(OCC4C(C(=O)O)C4(F)F)c(C)n3)nnn2C)C1 (single isomer, unassigned) [Compound 32-1]
LPAR1; [3]
  IC50: < 10 nM

## Cc1nc(-c2nnn(C)c2COC(=O)N(C)CCOC(F)(F)F)ccc1O[C@H]1CCC[C@H](C(=O)O)C1 [Compound 14]
LPAR1; [3]
  IC50: < 10 nM

## Cc1nc(-c2nnn(C)c2CNC(=O)OCC2CC(=C(F)F)C2)ccc1O[C@H]1CCC[C@H](C(=O)O)C1 (stereo partly shown) [Compound 23]
LPAR1; [3]
  IC50: < 10 nM

## Cc1nc(-c2nnn(C)c2COC(=O)N(C)CCOC(F)F)ccc1O[C@H]1CCC[C@H](C(=O)O)C1 [Compound 27]
LPAR1; [3]
  IC50: < 10 nM

## Cc1nc(-c2nnn(C)c2CNC(=O)O[C@H]2C[C@@H](OC(F)(F)F)C2)ccc1O[C@H]1CCC[C@H](C(=O)O)C1 [Compound 41]
LPAR1; [3]
  IC50: < 10 nM

## Cc1nc(-c2nnn(C)c2CNC(=O)OC2CC(=C(F)F)C2)ccc1OC1CCCCC(C(=O)O)C1 (single isomer, unassigned) [Compound 48-2]
LPAR1; [3]
  IC50: 10 to 50 nM

## Cc1nc(-c2nnn(C)c2CNC(=O)OC2CC(=C(F)F)C2)ccc1OCCC1(C(=O)O)CC1 (stereo not shown) [Compound 47]
[1]
  pharmacokinetic characteristics in mice: excellent pharmacokinetic characteristics
[1]; i.g. (3 mg/kg)
  C0 or Cmax: 566 ± 122 ng/mL
[1]; i.v. (1 mg/kg)
  C0 or Cmax: 1361 ± 179 ng/mL
[1]; iv, i.v. (1 mg/kg)
  AUC(0-t): 1000 ± 333 ng·h/mL
  clearance: 16.8 ± 5.7 mL/min/kg
  Vd: 5.4 ± 1.4 L/kg
[1]; po, i.g. (3 mg/kg)
  bioavailability: 91.3%
  AUC(0-t): 2740 ± 325 ng·h/mL
[2]; rat, iv, i.v. (1 mg/kg)
  AUC(0-t): 2850 ± 532 ng·h/mL
  clearance: 5.95 ± 1.2 mL/min/kg
[2]; rat, iv, i.v. (1 mg/kg), read-out: Vdss
  Vd: 0.825 ± 0.027 L/kg
[2]; rat, po, i.g. (3 mg/kg)
  bioavailability: ≥ 98%
  AUC(0-t): 12600 ± 1320 ng·h/mL
[2]; i.g. (3 mg/kg)
  C0 or Cmax: 3060 ± 457 ng/mL
[2]; i.v. (1 mg/kg)
  C0 or Cmax: 3233 ± 495 ng/mL

## C=C1CC(COC(=O)NCc2c(-c3ccc(O[C@H]4CCC[C@H](C(=O)O)C4)c(C)n3)nnn2C)C1 [Compound 11]
LPAR1; [3]
  IC50: < 10 nM

## C=C1CCC(CN(C)C(=O)OCc2c(-c3ccc(O[C@H]4CCC[C@H](C(=O)O)C4)c(C)n3)nnn2C)CC1 [Compound 19]
LPAR1; [3]
  IC50: < 10 nM
LPAR1; [4]
  IC50: 2 nM

## Cc1nc(-c2nnn(C)c2COC(=O)N(C)CC2CC(=C(F)F)C2)ccc1O[C@H]1CCC[C@H](C(=O)O)C1 (stereo partly shown) [Compound 13]
LPAR1; [3]
  IC50: 10 to 50 nM

## CC=C1CC(N(C)C(=O)OCc2c(-c3ccc(O[C@H]4CCC[C@H](C(=O)O)C4)c(C)n3)nnn2C)C1 (stereo partly shown) [Compound 7]
LPAR1; [3]
  IC50: < 10 nM
LPAR1; [4]
  IC50: 2 nM

## C=C1CC(CN(C)C(=O)OCc2c(-c3ccc(O[C@H]4CCC[C@H](C(=O)O)C4)c(C)n3)nnn2C)C1 [Compound 5]
LPAR1; [3]
  IC50: < 10 nM
LPAR1; [4]
  IC50: 2 nM

## C=C1CC(N(C)C(=O)OCc2c(-c3ccc(OCC4C(C(=O)O)C4(F)F)c(C)n3)nnn2C)C1 (stereo not shown) [Compound 25]
LPAR1; [3]
  IC50: < 10 nM

## C=C1C[C@H](Oc2ccc(-c3nnn(C)c3COC(=O)N(C)CCC)nc2C)C[C@@H](C(=O)O)C1 [Compound 24]
LPAR1; [3]
  IC50: < 10 nM

## Cc1nc(-c2nnn(C)c2COC(=O)N(C)[C@H]2C[C@H](OC(F)(F)F)C2)ccc1O[C@H]1CCC[C@H](C(=O)O)C1 [Compound 31]
LPAR1; [3]
  IC50: < 10 nM

## C=C1CC(N(C)C(=O)OCc2c(-c3ccc(O[C@H]4CCC[C@H](C(=O)O)C4)c(C)n3)nnn2C)C1 [Compound 4]
LPAR1; [3]
  IC50: < 10 nM
LPAR1; [4]
  IC50: 2 nM
[1]
  pharmacokinetic characteristics in mice: excellent pharmacokinetic characteristics
[1]; i.g. (3 mg/kg)
  C0 or Cmax: 687 ± 331 ng/mL
[1]; i.v. (1 mg/kg)
  C0 or Cmax: 1066 ± 134 ng/mL
[1]; iv, i.v. (1 mg/kg)
  AUC(0-t): 510 ± 95 ng·h/mL
  clearance: 33.2 ± 5.6 mL/min/kg
  Vd: 5.11 ± 1 L/kg
[1]; po, i.g. (3 mg/kg)
  bioavailability: ≥ 98%
  AUC(0-t): 2180 ± 672 ng·h/mL

## Cc1nc(-c2nnn(C)c2COC(=O)N(C)[C@H]2C[C@@H](OC(F)(F)F)C2)ccc1O[C@H]1CCC[C@H](C(=O)O)C1 [Compound 30]
LPAR1; [3]
  IC50: < 10 nM

## C=C1CC(N(C)C(=O)OCc2c(-c3ccc(N[C@H]4CCC[C@H](C(=O)O)C4)c(C)n3)nnn2C)C1 [Compound 21]
LPAR1; [3]
  IC50: < 10 nM

## Cc1nc(-c2nnn(C)c2COC(=O)N(C)[C@H]2C[C@@H](OC(F)F)C2)ccc1O[C@H]1CCC[C@H](C(=O)O)C1 [Compound 39]
LPAR1; [3]
  IC50: < 10 nM

## C=C1CC(N(C)C(=O)OCc2c(-c3ccc(OCC4C(C(=O)O)C4(F)F)c(C)n3)nnn2C)C1 (single isomer, unassigned) [Compound 32-4]
LPAR1; [3]
  IC50: < 10 nM

## Cc1nc(-c2nnn(C)c2COC(=O)N(C)OC2CCC2)ccc1O[C@H]1CCC[C@H](C(=O)O)C1 [Compound 15]
LPAR1; [3]
  IC50: 10 to 50 nM

## C=C1CC(CN(C)C(=O)OCc2c(-c3ccc(NC(=O)C4C(C(=O)O)C4(F)F)c(C)n3)nnn2C)C1 (single isomer, unassigned) [Compound 35-2]
LPAR1; [3]
  IC50: < 10 nM

## CC(C)=C1CC(N(C)C(=O)OCc2c(-c3ccc(O[C@H]4CCC[C@H](C(=O)O)C4)c(C)n3)nnn2C)C1 (stereo partly shown) [Compound 18]
LPAR1; [3]
  IC50: < 10 nM

## Cc1nc(-c2nnn(C)c2COC(=O)N(C)C2CC(=C(F)F)C2)ccc1O[C@H]1CCC[C@H](C(=O)O)C1 (stereo partly shown) [Compound 12]
LPAR1; [3]
  IC50: < 10 nM
LPAR1; [4]
  IC50: 2 nM
[1]
  pharmacokinetic characteristics in mice: excellent pharmacokinetic characteristics
[1]; i.g. (3 mg/kg)
  C0 or Cmax: 581 ± 18 ng/mL
[1]; i.v. (1 mg/kg)
  C0 or Cmax: 1938 ± 258 ng/mL
[1]; iv, i.v. (1 mg/kg)
  AUC(0-t): 962 ± 131 ng·h/mL
  clearance: 17.5 ± 2.4 mL/min/kg
  Vd: 2.57 ± 0.23 L/kg
[1]; po, i.g. (3 mg/kg)
  AUC(0-t): 1450 ± 81 ng·h/mL

## CCCN(C)C(=O)OCc1c(-c2ccc(O[C@H]3CC(=C(F)F)C[C@H](C(=O)O)C3)c(C)n2)nnn1C [Compound 38]
LPAR1; [3]
  IC50: < 10 nM

## C=C1CC(N(C)C(=O)OCc2c(-c3ccc(NC(=O)C4C(C(=O)O)C4(F)F)c(C)n3)nnn2C)C1 (single isomer, unassigned) [Compound 34-2]
LPAR1; [3]
  IC50: < 10 nM

## Cc1nc(-c2nnn(C)c2CNC(=O)O[C@H]2C[C@H](OC(F)(F)F)C2)ccc1O[C@H]1CCC[C@H](C(=O)O)C1 [Compound 42]
LPAR1; [3]
  IC50: < 10 nM

## C=C1CC(N(C)C(=O)OCc2c(-c3ccc(OCC4(CC(=O)O)CC4)c(C)n3)nnn2C)C1 [Compound 36]
LPAR1; [3]
  IC50: < 10 nM

## Cc1nc(-c2nnn(C)c2COC(=O)N(C)[C@H]2C[C@H](OC(F)F)C2)ccc1O[C@H]1CCC[C@H](C(=O)O)C1 [Compound 40]
LPAR1; [3]
  IC50: < 10 nM
